This passage reports IC50 results from patent publication US12173007B2, “Imidazopyridazine IL-17 inhibitor compounds” (Janssen Pharmaceutica NV, priority 2021, dated 2024).

Where only a bound is given, the exact number is not on record here.

For assay [1], the target named is IL-17A(FLAG-Tagged): IL-17RA(His-Tagged) binding (Homo sapiens, UniProt Q16552, K93Q). Description: IL-17A(FLAG-tagged):IL-17RA(His-tagged) binding disruption Eu-HTRF assay, Protocol 2. Particulars: FLAG-IL-17A 1 nM; average if tested more than once. The text has this: IL-17A(FLAG-Tagged): IL-17RA(His-Tagged) Binding Disruption Eu-HTRF Assay
Sequence of UniProt Q16552 (Q16552 with tags, fused parts or gaps K93Q): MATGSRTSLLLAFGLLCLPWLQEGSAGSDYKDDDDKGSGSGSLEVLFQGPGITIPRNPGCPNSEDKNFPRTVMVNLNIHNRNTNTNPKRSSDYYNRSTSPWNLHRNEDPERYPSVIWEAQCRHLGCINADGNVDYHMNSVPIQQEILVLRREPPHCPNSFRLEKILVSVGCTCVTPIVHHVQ
An antibody directed against the FLAG tag of IL-17A (SEQ ID NO: 1) is labeled with the HTRF donor chromophore (Europium-cryptate). IL-17A is present as a dimer that is “locked into” this quaternary structure due to the formation of loop-spanning […] disulfide bridges. The construct of IL-17RA used in the assay excludes the […] portion of the receptor and is fused to a C-terminal 10×His tag (SEQ ID NO:2). An antibody directed against the His tag of the IL-17RA chimera is labeled with the HTRF acceptor chromophore (“D2”). The fluorescence-resonance energy transfer (FRET) depends on the vicinity of the donor chromophore to the acceptor, and interruption of the binding between the IL-17A and IL-17RA causes the reduction/loss of FRET. Therefore, this assay allows to evaluate the compound effect on the binding IL-17A and IL-17RA by monitoring the fluorescence intensity of donor vs acceptor. The assay was run using either Protocol 1 or Protocol 2 as described below.
Protocol 2. 40 nl of 2-fold serial diluted compound solution for total 22 dilution points is added into each well of a 1536-well, white, low-volume, non-binding plate (Greiner #782904), then 2 μl of FLAG tagged IL-17A at 2×final concentration (1 nM) in solution of PBS+0.01% Triton-X100 is added to each well. The assay plate is briefly centrifuged then incubated for 1 h at rt. A mixed solution is prepared containing 2×5 nM 10HIS×IL-17RA, 2×2.5 nM Eu-anti-FLAG (CISBIO), 2×5 nM D2-anti-HIS (CISBIO) in PBS+0.01% Triton-X100+200 mM Potassium Fluoride (Sigma 60238) and 2 μl of mix is added to each well of the assay plate. The plate is briefly centrifuged then incubated for 2 h at rt. The HTRF intensities at the wavelength of donor (615 nm) and acceptor (665 nm) are measured using BMG Pherastar. The ratio between intensities at two wavelengths is calculated and plotted against the compound concentration and the data is fitted to a one-site competition model to yield IC50 of the compound.
In general terms: Time-resolved FRET reads energy transfer from a long-lived donor to a nearby acceptor.

For assay [2], the system named is IL-17A-induced G-CSF production in human normal keratinocyte (NHK). Description: NHK assay: IL-17A-induced G-CSF production in normal human keratinocytes. The assay is classed as cell-based. Particulars: 24 h, IL-17A 5 ng/mL, G-CSF by HTRF, average if tested more than once. A digest of the protocol:
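IC50 derives from G-CSF in supernatants, quantified by HTRF from a standard curve, with CellTiter-Glo viability compared to DMSO control. Before a 24 h, 37°C culture of normal human keratinocytes at 3000–4000 cells/well, compound dilutions were preincubated 1 h at rt with human IL-17A (5 ng/mL final), with 0.2% DMSO and 5% FBS.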

Broadly, the IC50 is the point on the concentration scale where inhibition reaches its midpoint. A high value points to a need for much substance. In the case of `COC[C@H](c1cnn2cc([C@@H](NC(=O)c3nonc3C3CC3(F)F)C3CCC(F)(F)CC3)nc2c1)N1CC(F)(F)CNC1=O` (single isomer, unassigned) [Example 128, N—((S)-(7-((S)-1-(5,5-Difluoro-2-oxotetrahydropyrimidin-1(2H)-yl)-2-methoxyethyl)imidazo[1,2-b]pyridazin-2-yl)(4,4-difluorocyclohexyl)methyl)-4-((R*)-2,2-difluorocyclopropyl)-1,2,5-oxadiazole-3-carboxamide], the IC50 is < 50 nM in assay [1] and < 50 nM in assay [2] (Homo sapiens, Keratinocyte).

`COC[C@H](c1cnn2cc([C@@H](NC(=O)c3nonc3C3CC3(F)F)C3CCC(F)(F)CC3)nc2c1)N1CC(F)(F)CNC1=O` (single isomer, unassigned) [Example 129, N—((S)-(7-((S)-1-(5,5-Difluoro-2-oxotetrahydropyrimidin-1(2H)-yl)-2-methoxyethyl)imidazo[1,2-b]pyridazin-2-yl)(4,4-difluorocyclohexyl)methyl)-4-((S*)-2,2-difluorocyclopropyl)-1,2,5-oxadiazole-3-carboxamide]: the IC50 in assay [1] and in assay [2] was < 50 nM each time.

With `COC[C@H](c1cnn2cc(C(NC(=O)c3nonc3C)C3C[C@H]4CC[C@H]4C3)nc2c1)N1CC(F)(F)CNC1=O` (single isomer, unassigned) [Example 132, N-((1S*)-((1R,5S)-Bicyclo[3.2.0]heptan-3-yl)(7-((S)-1-(5,5-difluoro-2-oxotetrahydropyrimidin-1(2H)-yl)-2-methoxyethyl)imidazo[1,2-b]pyridazin-2-yl)methyl)-4-methyl-1,2,5-oxadiazole-3-carboxamide], the IC50 in assay [1] is < 50 nM; in assay [2] (Homo sapiens, Keratinocyte), < 50 nM.

Take `Cc1nonc1C(=O)N[C@@H](CCC(C)(C)C(F)(F)F)c1cn2ncc([C@@H](COC3CC3)N3CC(F)(F)CNC3=O)cc2n1` [Example 56, N—((S)-1-(7-((S)-2-Cyclopropoxy-1-(5,5-difluoro-2-oxotetrahydropyrimidin-1(2H)-yl)ethyl)imidazo[1,2-b]pyridazin-2-yl)-5,5,5-trifluoro-4,4-dimethylpentyl)-4-methyl-1,2,5-oxadiazole-3-carboxamide]: the IC50 was < 50 nM in assay [1] and < 50 nM in assay [2] (Homo sapiens, Keratinocyte).

As to `[2H]C1([2H])NC(=O)N([C@H](COC2CC2)c2cnn3cc([C@@H](NC(=O)c4nonc4OC)C4CCC(F)(F)CC4)nc3c2)C([2H])([2H])C1(F)F` [Example 69, N—((S)-(7-((S)-2-Cyclopropoxy-1-(5,5-difluoro-2-oxotetrahydropyrimidin-1(2H)-yl-4,4,6,6-d4)ethyl)imidazo[1,2-b]pyridazin-2-yl)(4,4-difluorocyclohexyl)methyl)-4-methoxy-1,2,5-oxadiazole-3-carboxamide], the IC50 in assay [1] is < 50 nM; in assay [2] (Homo sapiens, Keratinocyte), < 50 nM.

Turning to `[2H]C1([2H])NC(=O)N([C@H](COC2CC2)c2cnn3cc([C@@H](NC(=O)c4nonc4CC)C4CCC(F)(F)CC4)nc3c2)C([2H])([2H])C1(F)F` [Example 70, N—((S)-(7-((S)-2-Cyclopropoxy-1-(5,5-difluoro-2-oxotetrahydropyrimidin-1(2H)-yl-4,4,6,6-d4)ethyl)imidazo[1,2-b]pyridazin-2-yl)(4,4-difluorocyclohexyl)methyl)-4-ethyl-1,2,5-oxadiazole-3-carboxamide], the half-maximal inhibitory concentration (IC50) was < 50 nM in assay [1] and < 50 nM in assay [2] (Homo sapiens, Keratinocyte).

Take `[2H]C1([2H])NC(=O)N([C@H](COC2CC2)c2cnn3cc([C@@H](NC(=O)c4ccnn4C(C)C)C4CCC(F)(F)CC4)nc3c2)C([2H])([2H])C1(F)F` [Example 71, N—((S)-(7-((S)-2-Cyclopropoxy-1-(5,5-difluoro-2-oxotetrahydropyrimidin-1(2H)-yl-4,4,6,6-d4)ethyl)imidazo[1,2-b]pyridazin-2-yl)(4,4-difluorocyclohexyl)methyl)-1-isopropyl-1H-pyrazole-5-carboxamide]: the IC50 was < 50 nM in assay [1] and < 50 nM in assay [2] (Homo sapiens, Keratinocyte).

For `[2H]C1([2H])NC(=O)N([C@H](COC)c2cnn3cc([C@@H](NC(=O)c4nonc4C4CC4)C4CCC(F)(F)CC4)nc3c2)C([2H])([2H])C1(F)F` [Example 72, 4-Cyclopropyl-N—((S)-(7-((S)-1-(5,5-difluoro-2-oxotetrahydropyrimidin-1(2H)-yl-4,4,6,6-d4)-2-methoxyethyl)imidazo[1,2-b]pyridazin-2-yl)(4,4-difluorocyclohexyl)methyl)-1,2,5-oxadiazole-3-carboxamide], the IC50 in assay [1] is < 50 nM; in assay [2] (Homo sapiens, Keratinocyte), < 50 nM.

In the case of `[2H]C1([2H])NC(=O)N([C@H](COC)c2cnn3cc([C@H](CCC(C)(C)C(F)(F)F)NC(=O)c4nonc4OC)nc3c2)C([2H])([2H])C1(F)F` [Example 73, N—((S)-1-(7-((S)-1-(5,5-Difluoro-2-oxotetrahydropyrimidin-1(2H)-yl-4,4,6,6-d4)-2-methoxyethyl)imidazo[1,2-b]pyridazin-2-yl)-5,5,5-trifluoro-4,4-dimethylpentyl)-4-methoxy-1,2,5-oxadiazole-3-carboxamide], the IC50 in assay [1] is < 50 nM; in assay [2] (Homo sapiens, Keratinocyte), < 50 nM.

As for `[2H]C1([2H])NC(=O)N([C@H](COC)c2cnn3cc([C@H](CCC(C)(C)C(F)(F)F)NC(=O)c4nonc4C)nc3c2)C([2H])([2H])C1(F)F` [Example 74, N—((S)-1-(7-((S)-1-(5,5-Difluoro-2-oxotetrahydropyrimidin-1(2H)-yl-4,4,6,6-d4)-2-methoxyethyl)imidazo[1,2-b]pyridazin-2-yl)-5,5,5-trifluoro-4,4-dimethylpentyl)-4-methyl-1,2,5-oxadiazole-3-carboxamide], the IC50 in assay [1] was < 50 nM; in assay [2] (Homo sapiens, Keratinocyte), < 50 nM.

As for `[2H]C1([2H])NC(=O)N([C@H](COC2CC2)c2cnn3cc([C@H](CCC(C)(C)C(F)(F)F)NC(=O)c4nonc4OC)nc3c2)C([2H])([2H])C1(F)F` [Example 75, N—((S)-1-(7-((S)-2-Cyclopropoxy-1-(5,5-difluoro-2-oxotetrahydropyrimidin-1(2H)-yl-4,4,6,6-d4)ethyl)imidazo[1,2-b]pyridazin-2-yl)-5,5,5-trifluoro-4,4-dimethylpentyl)-4-methoxy-1,2,5-oxadiazole-3-carboxamide], the half-inhibitory concentration (IC50) is < 50 nM in assay [1] and < 50 nM in assay [2] (Homo sapiens, Keratinocyte).

On to `[2H]C1([2H])NC(=O)N([C@H](COC2CC2)c2cnn3cc([C@H](CCC(C)(C)C(F)(F)F)NC(=O)c4nonc4C)nc3c2)C([2H])([2H])C1(F)F` [Example 76, N—((S)-1-(7-((S)-2-Cyclopropoxy-1-(5,5-difluoro-2-oxotetrahydropyrimidin-1(2H)-yl-4,4,6,6-d4)ethyl)imidazo[1,2-b]pyridazin-2-yl)-5,5,5-trifluoro-4,4-dimethylpentyl)-4-methyl-1,2,5-oxadiazole-3-carboxamide], for which the IC50 in assay [1] was < 50 nM; in assay [2] (Homo sapiens, Keratinocyte), < 50 nM.

For `COc1nonc1C(=O)N[C@H](c1cn2ncc([C@@H](COC3CC3)N3CC(F)(F)CNC3=O)cc2n1)C1CCC(F)(F)CC1` [Example 77, N—((S)-(7-((S)-2-Cyclopropoxy-1-(5,5-difluoro-2-oxotetrahydropyrimidin-1(2H)-yl)ethyl)imidazo[1,2-b]pyridazin-2-yl)(4,4-difluorocyclohexyl)methyl)-4-methoxy-1,2,5-oxadiazole-3-carboxamide], the IC50 was < 50 nM in assay [1] and < 50 nM in assay [2] (Homo sapiens, Keratinocyte).

For `O=C(N[C@H](c1cn2ncc([C@@H](COC3CC3)N3CC(F)(F)CNC3=O)cc2n1)C1CCC(F)(F)CC1)c1nonc1C(F)F` [Example 78, N—((S)-(7-((S)-2-Cyclopropoxy-1-(5,5-difluoro-2-oxotetrahydropyrimidin-1(2H)-yl)ethyl)imidazo[1,2-b]pyridazin-2-yl)(4,4-difluorocyclohexyl)methyl)-4-(difluoromethyl)-1,2,5-oxadiazole-3-carboxamide], the IC50 was < 50 nM in assay [1] and < 50 nM in assay [2] (Homo sapiens, Keratinocyte).

As for `COC[C@H](c1cnn2cc([C@@H](NC(=O)c3nonc3C(F)F)C3CCC(F)(F)CC3)nc2c1)N1CC(F)(F)CNC1=O` [Example 79, N—((S)-(7-((S)-1-(5,5-Difluoro-2-oxotetrahydropyrimidin-1(2H)-yl)-2-methoxyethyl)imidazo[1,2-b]pyridazin-2-yl)(4,4-difluorocyclohexyl)methyl)-4-(difluoromethyl)-1,2,5-oxadiazole-3-carboxamide], the 50% inhibitory concentration (IC50) in assay [1] is < 50 nM; in assay [2] (Homo sapiens, Keratinocyte), < 50 nM.
